Test results: patent US20150252051A1, “RETINOIC ACID RECEPTOR-RELATED ORPHAN RECEPTOR MODULATORS AND USES THEREOF” (INNOV17 LLC, priority 2014, published 2015)
pIC50: −log10 of the molar value.

Tests used:
Assay type in all cases: cell-based
Conditions in all cases: 72 h; human CD4+ T cells under TH17-polarizing conditions, 3 days; supernatant ELISA
IL-17A = assay: Human TH17 cytokine inhibition as measured by ELISA (IL-17A)
Procedure: (§1) Human TH17 Cytokine Inhibition as Measured by ELISA Peripheral blood mononuclear cells (PBMCs) were sourced from freshly prepared leukocyte enriched plasma (buffy coat) from healthy donors (New York Blood Center). PBMCs were isolated by density gradient centrifugation using Ficoll-Paque™ PLUS (GE Healthcare). Human CD4+ T cells were seeded into 96-well plates (5×10^4 cells/well) and activated with plate-bound anti-human (h)-CD3 antibody and soluble h-aCD28 (both at 1 ug/ml; eBioscience) and differentiated into TH17 cells with 20 ng/mL h-IL-6, 5 ng/mL h-TGF-β1, 10 ng/mL h-IL-23 (eBioscience) and 10 ng/mL IL-1β (Miltenyi Biotec) in serum-free TexMACS Medium (Miltenyi Biotec) supplemented with 1% Penicillin/Streptomycin (Lonza) for 3 days. CD4+ T cells propagated under TH17-polarizing conditions were cultured in the presence or absence of various concentrations of compounds with a final concentration of 0.1% DMSO. Supernatants were collected and stored at −20° C. until assayed for IL-17A, IL-17F and IL-21 levels by “Ready-Set-Go” ELISA kits (eBioscience) as per manufacturer's instructions. Endpoint absorbance was read at 450 nm using a microplate reader (Perkin Elmer).

IL-17F = assay: Human TH17 cytokine inhibition as measured by ELISA (IL-17F)
Procedure: as §1

IL-21 = assay: Human TH17 cytokine inhibition as measured by ELISA (IL-21)
Procedure: as §1

Measured: pIC50

O=C(c1ccccc1)N1C2CCC1C(CN1CCc3cc(-c4cn[nH]c4)ccc31)C2 (stereo not drawn) [Example 9, (2-((5-(1H-pyrazol-4-yl)-1H-indolin-1-yl)methyl)-7-azabicyclo[2.2.1]heptan-7-yl)(phenyl)methanone]
> 5.00: all assays above

O=C(Cc1ccccc1)N1C2CCC1C(Cn1ccc3cc(-c4cn[nH]c4)ccc31)C2 (stereo not drawn) [Example 10, 1-(2-((5-(1H-pyrazol-4-yl)-1H-indol-1-yl)methyl)-7-azabicyclo[2.2.1]heptan-7-yl)-2-phenylethanone]
> 5.00: all assays above

O=C(CCc1ccccc1)N1C2CCC1C(Cn1ccc3cc(-c4cn[nH]c4)ccc31)C2 (stereo not drawn) [Example 11, 1-(2-((5-(1H-pyrazol-4-yl)-1H-indol-1-yl)methyl)-7-azabicyclo[2.2.1]heptan-7-yl)-3-phenylpropan-1-one]
> 5.00: all assays above

O=C(C1CCCCC1)N1C2CCC1C(Cn1ccc3cc(-c4cn[nH]c4)ccc31)C2 (stereo not drawn) [Example 12, (2-((5-(1H-pyrazol-4-yl)-1H-indol-1-yl)methyl)-7-azabicyclo[2.2.1]heptan-7-yl)(cyclohexyl)methanone]
> 5.00: all assays above

O=C(CC1CCCCC1)N1C2CCC1C(Cn1ccc3cc(-c4cn[nH]c4)ccc31)C2 (stereo not drawn) [Example 13]
> 5.00: all assays above

CC(C)CC(=O)N1C2CCC1C(Cn1ccc3cc(-c4cn[nH]c4)ccc31)C2 (stereo not drawn) [Example 14, 1-(2-((5-(1H-pyrazol-4-yl)-1H-indol-1-yl)methyl)-7-azabicyclo[2.2.1]heptan-7-yl)-3-methylbutan-1-one]
> 5.00: all assays above

CC(C)C(=O)N1C2CCC1C(Cn1ccc3cc(-c4cn[nH]c4)ccc31)C2 (stereo not drawn) [Example 15, 1-(2-((5-(1H-pyrazol-4-yl)-1H-indol-1-yl)methyl)-7-azabicyclo[2.2.1]heptan-7-yl)-2-methylpropan-1-one]
> 5.00: all assays above
